Patent publication US8273337B2, “Hair binding peptides and peptide-based hair reagents for personal care” (Affinergy Inc., priority 2007, dated 2012)

Key:
90% gray hair [1] = experiment: ELISA hair-binding activity of biotinylated peptides on hair bundles; set-up: species or system human; details: 20 μM biotinylated peptide in TBST and 1 mg/mL BSA, 1 hour at room temperature, 90% gray hair bundles, streptavidin-HRP detection; mean of at least three replicates
Text: Enzyme-linked immunosorbent assay (ELISA) was used to evaluate the hair-binding affinity of the biopanning selected peptide candidates (Example 1; biotinylated peptides SEQ ID NOs: 25, 27, 29, 30, and 32). The identified peptides along with a positive control peptide Gray3 (given as SEQ ID NO: 34; previously reported in co-pending U.S. patent application Ser. No. 11/251,715 corresponding to U.S. Patent Application Publication No. 2006/0073111) were synthesized using standard solid […] synthesis method (U.S. Ser. No. 11/251/715).
The resulting absorbance values, reported as the mean of at least three replicates, and the standard error of the mean (SEM) are given in Table 3.

90% gray hair [2] = details: substrate 90% gray hair; peptide concentration giving 50% of the maximum ELISA signal; calculated from Scatchard plots
Protocol: (§1) The MB50 provides an indication of the strength of the binding interaction or affinity of the components of the complex.
as §1
The hair samples were assembled in bundles consisting of 100 hairs about 1 cm long which were bundled together using narrow tape at one end. […] Peptide binding buffer consisting of various concentrations of biotinylated peptide in TBST and 1 mg/mL BSA was added to the hair bundles and incubated for 1 hour at room temperature, followed by 6 TBST washes. […] The results were plotted as A450 versus the concentration of peptide using GraphPad Prism 4.0 (GraphPad Software, Inc., San Diego, Calif.).

Substance	Hair A405 nm (90% gray hair [1])	MB50 (90% gray hair [2]) [nM]
SSNDSNVSWFHYYASGLTSSR-GSSG-SRKSSQKNPHHPKPPKKPTAR-GSSGK (biotin) [Aff15025]	0.86	
VRPNLHRKAKAKPDHKQSENRKVPFYSH-GSSGK (biotin) [Aff15012]	0.873	24
SSEGASVASASDSVDSSYYSRKSSQKNPHHPKPPKKPTAR-GSSGK (biotin) [Aff15023]	0.66	
EGASVASASDSVDSSYYSR-GSSGK (biotin) [Aff15017]	0.184	
Gray3: positive control hair-binding peptide previously reported in U.S. Patent Application Publication No. 2006/0073111 (HDHKNQKETHQRHAA; Hair-binding peptide) [reference compound]	0.448	
SRKSSQKNPHHPKPPKKPTAR-GSSGK (biotin) [Aff15014]	0.871	33
